Data as given in PubChem BioAssay (NCI).
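How tested: cells in 96-well plates exposed to compound for 48 hours at five concentrations. TGI denotes the concentration required for complete inhibition of growth.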

Key:
Assay in all cases: NCI-60 cell line screen, 48 h
[1] = test system: 786-0 renal
[2] = test system: A498 renal
[3] = test system: A549 NSCLC
[4] = test system: ACHN renal
[5] = test system: CCRF-CEM leukemia
[6] = test system: COLO 205 colon
[7] = test system: HCT-116 colon
[8] = test system: HOP-62 NSCLC
[9] = test system: M14 melanoma
[10] = test system: MDA-MB-231 breast
[11] = test system: MOLT-4 leukemia
[12] = test system: NCI-H522 lung
[13] = test system: OVCAR-3 ovarian
[14] = test system: OVCAR-4 ovarian
[15] = test system: OVCAR-8 ovarian
[16] = test system: RXF 393 renal
[17] = test system: SN12C renal
[18] = test system: T-47D breast
[19] = test system: U251 CNS
[20] = test system: UACC-257 melanoma

Row | SMILES | TGI [1] [µM] | TGI [2] [µM] | TGI [3] [µM] | TGI [4] [µM] | TGI [5] [µM] | TGI [6] [µM] | TGI [7] [µM] | TGI [8] [µM] | TGI [9] [µM] | TGI [10] [µM] | TGI [11] [µM] | TGI [12] [µM] | TGI [13] [µM] | TGI [14] [µM] | TGI [15] [µM] | TGI [16] [µM] | TGI [17] [µM] | TGI [18] [µM] | TGI [19] [µM] | TGI [20] [µM]
1 | C=CC1C(OC2OC(CO)C(O)C(O)C2O)OC=C(C(=O)OC)C1CC1CC(=O)CC(CCc2ccc(O)cc2)O1 (stereo not given) | > 100 | > 100 | > 100 | > 100 | > 100 | > 100 | > 100 | > 100 | > 100 | > 100 | > 100 | > 100 | > 100 | > 100 | > 100 | > 100 | > 100 | > 100 | > 100 | > 100
2 | Cc1c(O)c(OC2OC(CO)C(O)C(O)C2O)cc2c1CC[C@@H]1C2(C)C(=O)C[C@]2(C)[C@@H]([C@@](C)(O)C(=O)CCC(C)(C)O)[C@H](O)C[C@@]12C (stereo not given in full) | > 100 | > 100 | > 100 | > 100 | > 100 | > 100 | > 100 | > 100 | > 100 | > 100 | > 100 | > 100 | > 100 | > 100 | > 100 | > 100 | > 100 | > 100 | > 100 | > 100
3 | c1ccc([P+](CC[P+](c2ccccc2)(c2ccccc2)c2ccccc2)(c2ccccc2)c2ccccc2)cc1 | > 100 | > 100 | > 100 | > 100 | 2.95 | 24.9 | > 100 | > 100 | > 100 | 98.4 | > 100 | > 79.5 | > 59.7 | > 100 | > 100 | > 83.4 | > 100 | > 58.8 | 21 | 11
4 | O=C(/N=C/c1c(O)c2ccccc2oc1=O)Oc1ccccc1 | 85.7 | 46.2 | > 100 | > 100 | > 100 | > 100 | 71.8 | 43.6 | > 100 | 84.1 | 96.4 | > 100 | 44.2 | 65.8 | 91.9 | 31.1 | 51.7 | 91.9 | 87.5 | 92.2
5 | CCOC(=O)CO/N=C1/C(c2c(O)[nH]c3ccccc23)=Nc2ccccc21 | > 100 | 38.2 | > 100 | > 100 | > 100 | > 100 | > 100 | 46 | > 100 | 43.3 | 78.5 | > 100 | 55 | 16.5 | > 100 | 29.2 | > 100 | 45.8 | 66.1 | > 100
6 | Cc1cc(C2CC(O)C(CO)O2)c(F)cc1F (stereo not given) | > 100 | > 100 | > 100 | > 100 | > 100 | > 100 | > 100 | > 100 | > 100 | > 100 | > 100 | > 100 | > 100 | > 100 | > 100 | > 100 | > 100 | > 100 | > 100 | > 100
